Key:
hFPR1 [1] = molecular target: T1, hFPR1 (Homo sapiens, UniProt P21462); assay: [Ca2+]i mobilization in FlpIn-CHO cells stably expressing hFPR1; type: cell-based; parameters: Calcium Rmax: unit not given here
T1 construct: expressed in transfected cells
T1 sequence (P21462 1-350): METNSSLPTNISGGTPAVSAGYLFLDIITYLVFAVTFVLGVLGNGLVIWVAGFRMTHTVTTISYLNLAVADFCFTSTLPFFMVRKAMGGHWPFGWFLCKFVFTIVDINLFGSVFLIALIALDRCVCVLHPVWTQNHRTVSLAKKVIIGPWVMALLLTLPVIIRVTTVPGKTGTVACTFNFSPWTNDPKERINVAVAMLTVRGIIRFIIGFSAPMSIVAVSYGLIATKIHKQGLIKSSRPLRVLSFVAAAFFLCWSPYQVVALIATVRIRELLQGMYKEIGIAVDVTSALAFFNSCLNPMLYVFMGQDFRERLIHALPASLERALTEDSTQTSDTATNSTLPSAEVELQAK
Excerpt: (§1) cDNDA construct and generation of stable cell lines: cDNA in pcDNA3.1^+ encoding the human formyl peptide receptors (FPR) subtypes, hFPR1, hFPR2 and hFPR3 was obtained from Invitrogen. The sequences for 3 hFPR receptors were amplified by PCR and cloned into the Gateway entry vector, pDONR202™, using the BP clonase enzyme mix, according to the manufactures' instructions (Invitrogen Inc, Carlsbad, Calif., USA). All hFPR receptors constructs in pDONR201™ were subsequently transfected into the pEF5/FRT/V5/dest vector using the LR clonase enzyme mix (Invitrogen). Receptor constructs (pEF5/FRT/V5/dest) were used to transfect FIp-In CHO cells as described previously (Valant C et al., PNAS, 2014). Cells were selected using 500 μg/mL hydromycin to generate cell lines stably expressing each receptor construct. Cells were maintained and cultured in high glucose DMEM supplemented with 10% FBS, 16 mM HEPES and 500 μg/mL hydromycin at 37° C. under a humidified atmosphere containing 5% CO2.
(§2) In the various assays described below, cells were plated into 96-well transparent cell culture plates at 4×10^4 cells per well, cultured overnight in serum-free media at 37° C. in 5% CO2.
Intracellular calcium mobilization: Intracellular calcium mobilization was assayed as described previously (Keov, P et al., 2014). Briefly, cells were washed once using HEPES buffered saline (HBS) solution [150 mM NaCl, 2.2 mM CaCl2, 2.6 mM KCl, 1.2 mM MgCl2, 10 mM HEPEs, 10 mM D-Glucose, 0.5% (w/v) bovine serum albumin (BSA) and 4 mM probenecid] at pH 7.4, then treated with Fluo-4-AM (1 μM, in HBS/BSA/probenecid) for 60 min at 37° C. in 5% CO2 in the dark. Cells were then further washed and placed in HBS/BSA/probenecid solution for ligation addition and assay using the FLEXstation 3 plate reader (Molecular Devices, Sunnyvale, Calif.). For all experiments, peak change in fluorescence signal was normalized to the cellular response to 100 μM ATP, which was used as an internal positive control.
(§3) Data analysis: All data were analysed using GraphPad Prism 6.0 (GraphPad Software, San Deigo, Calif., USA). Where appropriate, concentration-response curves were fitted to derive the maximal agonist effect (Emax), and the ligand potency estimate (pEC50), where Emax is the maximal possible response of the system (not the agonist), basal is the basal level of response in the absence of agonist, and pEC50 is the negative logarithm of the agonist concentration that gives a response halfway between Emax and basal.
In the present study, FIp-IN CHO cells and Gateway plasmid were obtained from Invitrogen Inc (Carlsbad, Calif., USA). The sequences for all 3 known human FPRs (hFPR1, hFPR2 and hFPR3) were amplified by PCR and cloned into the Gateway entry vector, pDONR202TM, using the BP clonase enzyme mix, according to the manufacturers' instructions. The hFPR pDONR201TM constructs were subsequently transfected into the pEF5/FRT/V5/dest vector using the LR clonase enzyme mix (Invitrogen). Receptor constructs (pEF5/FRT/V5/dest) were used to transfect FIp-IN CHO cells, as described previously (Valant et al. 2014). Cells were selected using 500 μg/mL hydromycin to generate cell lines stably expressing each human receptor construct. Cells were maintained and cultured in high glucose Dulbecco's modified eagle medium (DMEM) supplemented with 10% fetal bovine serum (FBS, from JRH Biosciences, Lenexa, Kans., USA) and 500 μg/mL hydromycin B (Invitrogen Inc) at 37° C. under a humidified atmosphere containing 5% CO2. Cell were plated into 96-well transparent cell culture plates at 4×10^4 cells per well, cultured overnight in serum-free media at 37° C. in 5% CO2.
(ii) Intracellular Ca2+ mobilization: Intracellular Ca2+ mobilization was determined in stably-transfected recombinant hFPR CHO cells, as described previously (Valant et al. 2014).

hFPR1 [2] = molecular target: T1, hFPR1; assay: ERK1/2 phosphorylation (AlphaScreen SureFire) in hFPR1-FlpIn-CHO cells; type: cell-based
Excerpt: as §1, §2
Measurement of extracellular signal regulated kinase 1 and 2 phosphorylation (pERK1/2): Initial ERK1/2 phosphorylation at Thr202/Tyr204 time-course experiments were performed to determine the time at which ERK1/2 phosphorylation was maximal after stimulation by each agonist. Cells were seeded onto transparent 96-well cell culture plates at 4×10^4 cells per well. After 6 h, cells were washed once with PBS, and then incubated in serum-free DMEM overnight, to allow FBS-stimulated phosphorylated ERK1/2 levels to subside. […] 10% (v/v) FBS was used as a positive control, with vehicle controls also included. The reaction was terminated by removal of study drugs and lysis of cells with 100 μL of SureFire lysis buffer (TGR Biosciences). Cell were lysed in SureFire lysis buffer and transferred to 384-well opaque proxiplates. Under low-light conditions, a 1:120 (v:v) dilution of AlphaScreen beads (both acceptor and donor):Surefire reaction buffer was prepared, which was mixed with the activation buffer in a ratio of 6:1 (v:v), respectively. Plates were incubated in the dark at 37° C. for 1 h before the fluorescence signal was measured by a Fusion-α plate reader (PerkinElmer Life and Analytical Sciences, Foster city, CA, USA) with standard AlphaScreen settings. Data were normalized to the maximal response elicited by 10% (v/v) FBS at the same time point.
Receptor mediated pERK1/2 levels were determined using the AlphaScreen™ ERK1/2 SureFire™ kit, as described previously (Keov, P et al., 2014). For all experiments, 10% FBS was used as internal positive control to stimulate pERK1/2, and which the maximum responses were used for normalization of data, whilst vehicle was used as negative control.
as §3
In the present study, FIp-IN CHO cells and Gateway plasmid were obtained from Invitrogen Inc (Carlsbad, Calif., USA). The sequences for all 3 known human FPRs (hFPR1, hFPR2 and hFPR3) were amplified by PCR and cloned into the Gateway entry vector, pDONR202TM, using the BP clonase enzyme mix, according to the manufacturers' instructions. The hFPR pDONR201TM constructs were subsequently transfected into the pEF5/FRT/V5/dest vector using the LR clonase enzyme mix (Invitrogen).

[3] = Plasma levels and pharmacokinetics in mice; type: in vivo, mouse; conditions: mouse, in vivo; Table 9; mice
hFPR1 [4] = molecular target: T1, hFPR1; assay: Quantification of biased agonism (operational model) at hFPR1 in CHO cells; type: cell-based; conditions: Table 9
Excerpt: To quantify biased agonism mediated by each agonist across the various pathways ([Ca^2+], mobilization, pERK1/2, Akt1/2/3 and inhibition of cAMP accumulation), agonist concentration-response curves were refitted using the operation model normalized to the transduction ratio of a reference agonist (in this case, BIDI-002) as described previously (Stewart G D et al., 2009). Under these conditions, if the test agonist and the reference agonist activate the two pathways through a common receptor conformation, the log [bias factor] should be 0.0 (or bias factor different from 1.0), irrespective of differences in response amplification between pathways. In contrast, significant deviation of log [bias factor] from 0.0 (or bias factor different from 1.0) indicates the involvement of distinct conformations for the different agonists. All affinities, potencies, efficacies, and cooperativity parameters were estimated as logarithms (Christopoulos, 1998). Results are expressed as means±S.E. unless otherwise stated. Statistical analyses were by Student's t test, or one-way ANOVA followed by Dunnett's Comparison or Tukey's post-hoc test, as appropriate. Values of p<0.05 were considered statistically significant.
A “transduction ratio” is firstly derived for each response (τ/KA, where τ represents efficacy, and KA affinity, of the agonist for each GPCR conformational state), extracted from each concentration-response curve. “Bias factors” (ΔΔ(τ/KA)) were then calculated by normalizing the transduction ratio to a reference ligand (in this case, Cmpd43) and reference pathway, which here was Akt1/2/3(Thr308) phosphorylation. Lastly, bias factors were plotted on a ‘web of bias’ to visualize the potential for biased agonism. […] Under these conditions, if the test agonist and the reference agonist activate the two pathways through a common receptor conformation, the log [bias factor] should be 0.0 (i.e. the bias factor 1.0), irrespective of differences in response amplification between pathways. In contrast, significant deviation of log [bias factor] away from 0.0 (i.e. where the bias factor is different to 1.0) indicates the involvement of distinct conformations for the different agonists. All affinities, potencies, efficacies, and cooperativity parameters were estimated as logarithms (Kenakin et al. 2012).
Five signaling pathways were examined, namely pERK1/2-phosphorylation, Akt1/2/3(Ser473)-phosphorylation, Akt1(Thr308)-phosphorylation, increases in Ca2+i and inhibition of forskolin-induced cAMP accumulation. An operational model of agonism was fitted to each concentration-response curve to estimate a transduction ratio (τ/KA) for each agonist, at each pathway assessed, as described (FIG. 21B) (Kenakin et al. 2012). Transduction ratios were normalized to a reference agonist (Cmpd43) and a reference pathway (Akt1/2/3(Thr308)-phosphorylation), generating bias factors and therefore allowing quantitative cross-pathway comparison for each agonist.

[5] = Table 10, receptor not given, ND = Not detectable
[6] = Table 10, receptor not given, values of 10394/10396 equal the hFPR1 values of Table 9
[7] = Table 10, receptor not given, ND = Not detectable, read-out: Calcium pEC50 (converted)
[8] = Table 10, receptor not given, values of 10394/10396 equal the hFPR1 values of Table 9, read-out: ERK pEC50 (converted)

Calcium Rmax (hFPR1 [1]; [5])	ERK Rmax (hFPR1 [2]; Table 10, receptor not given)	ERK pEC50 (hFPR1 [2]; [6])	EC50 (hFPR1 [2]; [8])	Compound	other results
26 ± 6	81 ± 6	5.58 ± 0.14		COc1ccc(Cc2cc(C)nn(C(C)C(=O)Nc3ccc(Br)cc3)c2=O)cc1 (stereo not shown) [MIPS-0008853]	
26 ± 9	76 ± 3	6.07 ± 0.11		COc1ccccc1Cc1cc(C)nn(C(C)C(=O)Nc2ccc(Br)cc2)c1=O (stereo not shown) [MIPS-0008854]	
38 ± 2	82 ± 5		170 nM	COc1cccc(Cc2cc(C)nn(Cc3ccc(Cl)cc3)c2=O)c1OC [MIPS-0010394]	Tmax [3]: 0.3 h; half-life [3]: 9.5 h; Bias (away from Ca2+i), hFPR1-FlpInCHO cells in vitro (hFPR1 [4]): Slight; EC50 (hFPR1 [1]; Table 9, read-out: potency (pEC50) Ca^2+i, hFPR1-FlpInCHO cells in vitro (converted)): 407 nM; EC50 (hFPR1 [1]; [7]): 407 nM; EC50 (hFPR1 [2]; Table 9, read-out: potency (pEC50) pERK1/2, hFPR1-FlpInCHO cells in vitro (converted)): 170 nM
	78 ± 13		1910 nM	Cc1cc(Cc2cccc3c2OCCO3)c(=O)n(CC(=O)Nc2ccc(Cl)cc2)n1 [MIPS-0014053]	
13 ± 3	64 ± 6	5.10 ± 0.23		COc1ccc(NC(=O)Cn2nc(C)cc(Cc3ccccc3OC)c2=O)cc1 [MIPS-0014052]	
17 ± 3	81 ± 2	5.91 ± 0.13		COc1ccccc1Cc1cc(C)nn(CC(=O)Nc2ccc(Cl)cc2)c1=O [MIPS-0010392]	EC50 (hFPR1 [1]; [7]): 18200 nM
	57 ± 2	5.07 ± 0.18		COc1cccc(Cc2cc(C)nn(C(C)C(=O)Nc3ccc(F)cc3)c2=O)c1 (stereo not shown) [MIPS-0008749]	
48 ± 7	78 ± 2		2630 nM	COc1ccc(NC(=O)Cn2nc(C)cc(Cc3c(OC)cccc3OC)c2=O)cc1 [MIPS-0014071]	EC50 (hFPR1 [1]; [7]): 2820 nM
	50 ± 4	5.12 ± 0.38		COc1cccc(Cc2cc(C)nn(C(C)C(=O)Nc3cccc(F)c3)c2=O)c1 (stereo not shown) [MIPS-0008745]	
19 ± 2	77 ± 3	5.00 ± 0.37		COc1ccc(OC)c(Cc2cc(C)nn(CC(=O)Nc3ccc(Cl)cc3)c2=O)c1 [MIPS-0010384]	EC50 (hFPR1 [1]; [7]): 6030 nM
18 ± 3	93 ± 7	5.68 ± 16		Cc1cc(Cc2cccc(F)c2)c(=O)n(C(C)C(=O)Nc2ccc(Br)cc2)n1 (stereo not shown) [MIPS-0008859]	
11 ± 2	94 ± 11		1780 nM	COc1cccc(Cc2cc(C)nn(CC(=O)Nc3ccc(Cl)cc3)c2=O)n1 [MIPS-0014055]	
26 ± 6	74 ± 7		5750 nM	COc1cccc(Cc2cc(C)nn(C(C)C(=O)Nc3ccc4c(c3)OCO4)c2=O)c1 (stereo not shown) [MIPS-0008750]	
8 ± 2	91 ± 8	5.75 ± 0.12		Cc1cc(Cc2ccccc2F)c(=O)n(C(C)C(=O)Nc2ccc(Br)cc2)n1 (stereo not shown) [MIPS-0008858]	
	79 ± 9	5.30 ± 0.12		CCc1ccc(NC(=O)Cn2nc(C)cc(Cc3ccccc3OC)c2=O)cc1 [MIPS-0014051]	
20 ± 5	95 ± 5	5.47 ± 0.12		COc1cccc(Cc2cc(C)nn(C(C)C(=O)Nc3ccc(Cl)cc3)c2=O)c1 (stereo not shown) [MIPS008744]	
19 ± 3	64 ± 4		12600 nM	COc1cccc(Cc2cc(C)nn(C(C)C(=O)Nc3ccc4c(c3)OCO4)c2=O)c1 (stereo not shown) [MIPS-0008856]	
18 ± 8	74 ± 3		1020 nM	Cc1cc(Cc2ccccn2)c(=O)n(CC(=O)Nc2ccc(Cl)cc2)n1 [MIPS-0010397]	
5 ± 1	89 ± 1	5.74 ± 0.13		Cc1cc(Cc2ccc(F)cc2)c(=O)n(C(C)C(=O)Nc2ccc(Br)cc2)n1 (stereo not shown) [MIPS-0008857]	
32 ± 1	87 ± 1		1150 nM	COc1ccccc1Cc1cc(C)nn(CC(=O)Nc2ccc(C)cc2)c1=O [MIPS-0014058]	EC50 (hFPR1 [1]; [7]): 5010 nM
45 ± 10	91 ± 4		603 nM	Cc1cc(Cc2ccccn2)c(=O)n(CC(=O)Nc2ccc(Cl)cc2)n1 [MIPS-0014057]	EC50 (hFPR1 [1]; [7]): 4570 nM

From patent US10328075B2, “Method of treatment and compounds for use therein” (Baker Heart and Diabetes Institute, priority 2015, dated 2019)
